Laboratory results as given in US10524471B2, “Compositions and methods for increasing salt tolerance in plants” (King Abdullah University of Science and Technology, priority 2016, dated 2020).
“Also recorded” adds a separate entry of the source.

System: Arabidopsis seedlings
Assay: Arabidopsis salt stress tolerance assay (½ MS + 100 mM NaCl)
Format: in vivo, Arabidopsis thaliana

NC1(C(=O)O)CC1 [ACC, 1-aminocyclopropane-1-carboxylic acid]
effect on salt stress tolerance compared with SA187 (100 nM ACC, ½ MS + 100 mM NaCl, 12 days after transfer): could largely mimic the beneficial activity of SA187; also recorded: partially mimics the effect of SA187

O=[N+]([O-])[O-].[Ag+] [AgNO3, silver nitrate]
SA187-induced tolerance to salt stress in presence of inhibitor (in vivo): did not exhibit any SA187-induced tolerance to salt stress
